Results on 22 molecules are retold here after patent US12331026B2 (NiKang Therapeutics, Inc., priority 2022, dated 2025).

SMILES strings stand for the structures.

The experiment concerns the target T1, CDK2 (Homo sapiens, UniProt P24941).
T1 construct: endogenous in cells; host or cells: OVCAR3 cells
Description: Phospho-RB measurement in OVCAR3 cells (HTRF phospho-RB S807/811). Format: cell-based. Conditions: phosphorylation of RB protein at S807/811, HTRF, 24 h compound treatment, 0.3 to 10,000 nM, read-out: pRb (uM). In a few lines: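 IC50 values come from four-parameter logistic fits of the DMSO-normalised 665/620 nm TR-FRET ratio for phospho-RB (S807/811). Antibody detection ran 4 h at room temperature.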
In general terms: Time-resolved FRET reads energy transfer from a long-lived donor to a nearby acceptor.
For `C[C@@H]1CN(C)C[C@@H](C)N1c1nc(-c2cccc(NS(=O)(=O)c3c(F)cccc3F)c2F)c(-c2ccnc(NC3CC4(C3)CS(=O)(=O)C4)n2)s1` [Example 60, N-(3-(5-(2-((2,2-dioxido-2-thiaspiro[3.3]heptan-6-yl)amino)-pyrimidin-4-yl)-2-((2R,6R)-2,4,6-trimethylpiperazin-1-yl)thiazol-4-yl)-2-fluorophenyl)-2,6-difluorobenzenesulfonamide], the IC50 stood at 0.9 µM.

Consider `O=S1(=O)CC2(CC(Nc3nccc(-c4sc(C56CCC(CC5)C6)nc4-c4cccc(NS(=O)(=O)c5c(F)cccc5F)c4F)n3)C2)C1` [Example 9, N-(3-(2-(bicyclo[2.2.1]heptan-1-yl)-5-(2-((2,2-dioxido-2-thiaspiro[3.3]heptan-6-yl)amino)pyrimidin-4-yl)thiazol-4-yl)-2-fluorophenyl)-2,6-difluorobenzenesulfonamide], for which the IC50 was determined as 0.1 µM.

Turning to `CS(=O)(=O)[C@H]1CC[C@H](Nc2nccc(-c3sc(C45CC(C4)C5)nc3-c3cccc(NS(=O)(=O)c4c(F)cccc4C(F)(F)F)c3F)n2)CC1` [Example 36], the IC50 is 0.09 µM. Take `O=S1(=O)CC2(CC(Nc3nccc(-c4sc(N5C6CCC5CN(C5CC(F)(F)C5)C6)nc4-c4cccc(NS(=O)(=O)c5c(F)cccc5C(F)F)c4F)n3)C2)C1` [Example 50, N-(3-(2-(3-(3,3-difluorocyclobutyl)-3,8-diazabicyclo[3.2.1]octan-8-yl)-5-(2-((2,2-dioxido-2-thiaspiro[3.3]heptan-6-yl)amino)pyrimidin-4-yl)thiazol-4-yl)-2-fluorophenyl)-2-(difluoromethyl)-6-fluorobenzenesulfonamide]: the IC50 was determined as 0.19 µM. Under `O=S1(=O)C[C@@H]2[C@H](C1)[C@H]2Nc1nccc(-c2sc(C34CCC(CC3)CC4)nc2-c2cccc(NS(=O)(=O)c3c(F)cccc3F)c2F)n1` [Example 116, N-(3-(2-(bicyclo[2.2.2]octan-1-yl)-5-(2-(((1R,5S,6r)-3,3-dioxido-3-thiabicyclo[3.1.0]hexan-6-yl)amino)pyrimidin-4-yl)thiazol-4-yl)-2-fluorophenyl)-2,6-difluorobenzenesulfonamide] stands 0.09 µM; under `O=S1(=O)CC2(CC(Nc3nccc(-c4sc(C56CC(C5)C6)nc4-c4cccc(NS(=O)(=O)c5c(F)cccc5F)c4F)n3)C2)C1` [Example 3, N-(3-(2-(bicyclo[1.1.1]pentan-1-yl)-5-(2-((2,2-dioxido-2-thiaspiro[3.3]heptan-6-yl)amino)pyrimidin-4-yl)thiazol-4-yl)-2-fluorophenyl)-2,6-difluorobenzenesulfonamide], 0.12 µM; under `CN1CC2CCC(C1)N2c1nc(-c2cccc(NS(=O)(=O)c3c(OC(F)F)cccc3C(F)(F)F)c2F)c(-c2ccnc(NC3CC4(C3)CS(=O)(=O)C4)n2)s1` [Example 75, 2-(difluoromethoxy)-N-(3-(5-(2-((2,2-dioxido-2-thiaspiro[3.3]heptan-6-yl)amino)pyrimidin-4-yl)-2-(3-methyl-3,8-diazabicyclo[3.2.1]octan-8-yl)thiazol-4-yl)-2-fluorophenyl)-6-(trifluoromethyl)benzenesulfonamide], 0.85 µM. Turning to `O=S1(=O)CC2(CC(Nc3nccc(-c4sc(C5(C(F)F)CC5)nc4-c4cccc(NS(=O)(=O)c5c(F)cccc5OC(F)F)c4F)n3)C2)C1` [Example 81], the IC50 turned out to be 0.14 µM. Under `CS(=O)(=O)[C@H]1CC[C@@H](Nc2nccc(-c3sc(C45CC(C4)C5)nc3-c3cccc(NS(=O)(=O)c4c(F)cccc4C(F)(F)F)c3F)n2)CC1` [Example 132, N-(3-(2-(bicyclo[1.1.1]pentan-1-yl)-5-(2-(((1s,4s)-4-(methylsulfonyl)cyclohexyl)amino)pyrimidin-4-yl)thiazol-4-yl)-2-fluorophenyl)-2-fluoro-6-(trifluoromethyl)benzenesulfonamide] stands 0.05 µM. Under `O=S1(=O)C[C@@H]2[C@H](C1)[C@H]2Nc1nccc(-c2sc(C3(C(F)F)CC3)nc2-c2cccc(NS(=O)(=O)c3c(F)cccc3C(F)(F)F)c2F)n1` [Example 72, N-(3-(2-(1-(difluoromethyl)cyclopropyl)-5-(2-(((1R,5S,6r)-3,3-dioxido-3-thiabicyclo[3.1.0]hexan-6-yl)amino)pyrimidin-4-yl)thiazol-4-yl)-2-fluorophenyl)-2-fluoro-6-(trifluoromethyl)benzenesulfonamide] stands 0.061 µM; under `CS(=O)(=O)[C@H]1CC[C@H](Nc2nccc(-c3sc(C4(C(F)(F)F)CC4)nc3-c3cccc(NS(=O)(=O)c4c(F)cccc4C(F)(F)F)c3F)n2)CC1` [Example 104, 2-fluoro-N-(2-fluoro-3-(5-(2-(((1r,4r)-4-(methylsulfonyl)-cyclohexyl)amino)pyrimidin-4-yl)-2-(1-(trifluoromethyl)-cyclopropyl)thiazol-4-yl)phenyl)-6-(trifluoromethyl)benzenesulfonamide], 0.08 µM. As for `COc1cccc(F)c1S(=O)(=O)Nc1cccc(-c2nc(N3C4CCC3CN(C)C4)sc2-c2ccnc(NC3CC4(C3)CS(=O)(=O)C4)n2)c1F` [Example 57, N-(3-(5-(2-((2,2-dioxido-2-thiaspiro[3.3]heptan-6-yl)amino)-pyrimidin-4-yl)-2-(3-methyl-3,8-diazabicyclo[3.2.1]octan-8-yl)thiazol-4-yl)-2-fluorophenyl)-2-fluoro-6-methoxybenzenesulfonamide], the IC50 is 0.6 µM. Under `O=S1(=O)C[C@@H]2[C@H](C1)[C@H]2Nc1nccc(-c2sc(N3C4CCC3CN(C3CC3)C4)nc2-c2cccc(NS(=O)(=O)c3c(F)cccc3F)c2F)n1` [Example 127, N-(3-(2-(3-cyclopropyl-3,8-diazabicyclo[3.2.1]octan-8-yl)-5-(2-(((1R,5S,6r)-3,3-dioxido-3-thiabicyclo[3.1.0]hexan-6-yl)amino)-pyrimidin-4-yl)thiazol-4-yl)-2-fluorophenyl)-2,6-difluorobenzene-sulfonamide] stands 0.06 µM; under `O=S1(=O)CC2(CC(Nc3nccc(-c4sc(N5CC6CCC(CC6)C5)nc4-c4cccc(NS(=O)(=O)c5c(F)cccc5F)c4F)n3)C2)C1` [Example 21], 0.24 µM. Consider `O=S1(=O)CC2C(C1)C2Nc1nccc(-c2sc(N3C4CCC3COC4)nc2-c2cccc(NS(=O)(=O)c3c(F)cccc3C(F)(F)F)c2F)n1` (stereo not shown) [Example 112, N-(3-(2-(3-oxa-8-azabicyclo[3.2.1]octan-8-yl)-5-(2-((3,3-dioxido-3-thiabicyclo[3.1.0]hexan-6-yl)amino)pyrimidin-4-yl)thiazol-4-yl)-2-fluorophenyl)-2-fluoro-6-(trifluoromethyl)benzenesulfonamide], for which the IC50 was found to be 0.03 µM. `CN1CC2CC(C1)N2c1nc(-c2cccc(NS(=O)(=O)c3c(F)cccc3F)c2F)c(-c2ccnc(NC3CC4(C3)CS(=O)(=O)C4)n2)s1` [Example 22, N-(3-(5-(2-((2,2-dioxido-2-thiaspiro[3.3]heptan-6-yl)amino)pyrimidin-4-yl)-2-(3-methyl-3,6-diazabicyclo[3.1.1]heptan-6-yl)thiazol-4-yl)-2-fluorophenyl)-2,6-difluorobenzenesulfonamide]: the IC50 is 0.44 µM. On to `CC1(C)CCN1c1nc(-c2cccc(NS(=O)(=O)c3c(F)cccc3C(F)(F)F)c2F)c(-c2ccnc(N[C@H]3[C@@H]4CS(=O)(=O)C[C@@H]43)n2)s1` [Example 121, N-(3-(2-(2,2-dimethylazetidin-1-yl)-5-(2-(((1R,5S,6r)-3,3-dioxido-3-thiabicyclo[3.1.0]hexan-6-yl)amino)pyrimidin-4-yl)thiazol-4-yl)-2-fluorophenyl)-2-fluoro-6-(trifluoromethyl)benzenesulfonamide], for which the IC50 was found to be 0.05 µM.

With `CC1(C#N)CC(N2CC3CCC(C2)N3c2nc(-c3cccc(NS(=O)(=O)c4c(F)cccc4F)c3F)c(-c3ccnc(NC4CC5(C4)CS(=O)(=O)C5)n3)s2)C1` (stereo not shown) [Example 49, N-(3-(2-(3-(3-cyano-3-methylcyclobutyl)-3,8-diazabicyclo-[3.2.1]octan-8-yl)-5-(2-((2,2-dioxido-2-thiaspiro[3.3]heptan-6-yl)amino)pyrimidin-4-yl)thiazol-4-yl)-2-fluorophenyl)-2,6-difluorobenzenesulfonamide], the IC50 was 1.13 µM. With `CC(C)(C)OC(=O)N1CCC(C)(c2nc(-c3cccc(NS(=O)(=O)c4c(F)cccc4F)c3F)c(-c3ccnc(NC4CC5(C4)CS(=O)(=O)C5)n3)s2)CC1` [Example 13, tert-butyl 4-(4-(3-((2,6-difluorophenyl)sulfonamido)-2-fluorophenyl)-5-(2-((2,2-dioxido-2-thiaspiro[3.3]heptan-6-yl)amino)pyrimidin-4-yl)thiazol-2-yl)-4-methylpiperidine-1-carboxylate] the figure was 0.73 µM; with `CS(=O)(=O)[C@H]1CC[C@H](Nc2nccc(-c3sc(C45CC(C(F)(F)F)(C4)C5)nc3-c3cccc(NS(=O)(=O)c4c(F)cccc4C(F)(F)F)c3F)n2)CC1` [Example 35, 2-fluoro-N-(2-fluoro-3-(5-(2-(((1r,4r)-4-(methylsulfonyl)-cyclohexyl)amino)pyrimidin-4-yl)-2-(3-(trifluoromethyl)-bicyclo[1.1.1]pentan-1-yl)thiazol-4-yl)phenyl)-6-(trifluoromethyl)-benzenesulfonamide], 0.29 µM. On to `O=S1(=O)CC2(CC(Nc3nccc(-c4sc(C56CCC(CC5)CC6)nc4-c4cccc(NS(=O)(=O)c5c(F)cccc5F)c4F)n3)C2)C1` [Example 10, N-(3-(2-(bicyclo[2.2.2]octan-1-yl)-5-(2-((2,2-dioxido-2-thiaspiro[3.3]heptan-6-yl)amino)pyrimidin-4-yl)thiazol-4-yl)-2-fluorophenyl)-2,6-difluorobenzenesulfonamide], for which the IC50 stood at 0.055 µM. Under `O=S1(=O)C[C@@H]2[C@H](C1)[C@H]2Nc1nccc(-c2sc(N3C4CCC3CN(C3CC(F)(F)C3)C4)nc2-c2cccc(NS(=O)(=O)c3c(F)cccc3F)c2F)n1` [Example 107, N-(3-(2-(3-(3,3-difluorocyclobutyl)-3,8-diazabicyclo[3.2.1]octan-8-yl)-5-(2-(((1R,5S,6r)-3,3-dioxido-3-thiabicyclo[3.1.0]hexan-6-yl)amino)pyrimidin-4-yl)thiazol-4-yl)-2-fluorophenyl)-2,6-difluorobenzenesulfonamide] stands 0.15 µM.
